The subject of test [1] is phosphorylation of C-Nap1. The test can be described thus: Phosphorylated C-Nap1 in cell assay. The conditions noted are these: for modulation of C-Nap1 phosphorylation: aphidicolin-synchronized U2OS cells, different concentrations.
Test [2] addresses T1, Nek2 (Homo sapiens, UniProt P51955).
T1 sequence (P51955 1-445): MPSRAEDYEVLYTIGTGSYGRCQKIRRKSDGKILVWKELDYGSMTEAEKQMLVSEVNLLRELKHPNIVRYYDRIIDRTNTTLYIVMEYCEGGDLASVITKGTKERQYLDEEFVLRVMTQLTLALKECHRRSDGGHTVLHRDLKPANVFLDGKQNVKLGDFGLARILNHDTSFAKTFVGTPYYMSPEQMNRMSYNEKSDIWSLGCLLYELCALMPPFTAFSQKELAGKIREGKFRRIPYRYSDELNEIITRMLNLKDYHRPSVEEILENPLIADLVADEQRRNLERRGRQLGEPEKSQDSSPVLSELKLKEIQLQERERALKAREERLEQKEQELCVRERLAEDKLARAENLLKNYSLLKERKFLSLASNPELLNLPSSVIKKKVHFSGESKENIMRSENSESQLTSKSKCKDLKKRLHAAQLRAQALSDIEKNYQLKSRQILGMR
In kind it is biochemical.

For the compound `C[C@@H](/C=C\C(F)(F)F)Oc1cc(-c2cc(-c3cc(CN(C)C)cs3)cnc2N)ccc1C(N)=O` [(S)-21, (S)-(Z)-4-(2-Amino-5-(4-((dimethylamino)methyl)thiophen-2-yl)pyridin-3-yl)-2-((5,5,5-trifluoropent-3-en-2-yl)oxy)benzamide], the “modulation of C-Nap1 phosphorylation” value in test [1] is on record as “significantly less suppression of C-Nap1 phosphorylation”.

As for `CC(Oc1cc(-c2cc(-c3ccc(CN4CCOCC4)s3)cnc2N)ccc1C(N)=O)c1ccccc1C(F)(F)F` (stereo not shown) [17g], the “increase of Nek2 IC50 compared with compound 17c” value in test [2] was “more than 7 fold”.

As for `C[C@@H](Oc1cc(-c2cc(-c3cc(CN(C)C)cs3)cnc2N)ccc1C(N)=O)c1ccccc1C(F)(F)F` [(R)-17j], the IC50 (in general, the concentration that inhibits the measured activity by half) in test [1] (Homo sapiens, U2OS, 3 h, read-out: IC50 for C-Nap1 phosphorylation inhibition) was 2700 nM.

For the compound `CC(Oc1cc(-n2cnc3cc(OC4CCN(C)CC4)ccc32)ccc1C(N)=O)c1ccccc1C(F)(F)F` (racemic) [rac-3, reference compound], the “modulation of C-Nap1 phosphorylation” value in test [1] is “did not show any significant modulation of C-Nap1 phosphorylation”.

The record behind these values is PMC3935458 (Journal of medicinal chemistry, 2012).
